Earlier results as cited in PMC4393105, “tRNA^Glu Increases the Affinity of Glutamyl-tRNA Synthetase for Its Inhibitor Glutamyl-Sulfamoyl-Adenosine, an Analogue of the Aminoacylation Reaction Intermediate Glutamyl-AMP: Mechanistic and Evolutionary Implications” (PLoS ONE, 2015).
Read-outs that look alike come from different tables or passages of the source.

What was measured:
[1] = target: PheRS from baker’s yeast; details: read-out: K d aa-AMP aaRS, cited from earlier work
[2] = target: ThrRS from yeast mitochodria; set-up: method as in PMID 22773845; details: read-out: K d aa-AMP aaRS; cited from earlier work
[3] = test system: IleRS from E. coli; set-up: method as in earlier work; details: reviewed by Fersht, 1998, 48; cited from earlier work

Nc1ncnc2c1ncn2[C@@H]1O[C@H](COP(=O)(O)OC(=O)[C@@H](N)Cc2ccccc2)[C@@H](O)[C@H]1O [Phe-AMP]
Kd ([1]; cognate aa-AMP): 5 nM

Nc1ncnc2c1ncn2C1OC(COS(=O)(=O)NC(=O)[C@@H](N)CO)[C@@H](O)[C@H]1O (some centres unmarked) [Ser-AMS, Seryl-sulfamoyl-adenosine]
Kd [2]: 450 nM

C[C@@H](O)[C@H](N)C(=O)NS(=O)(=O)OC[C@@H]1O[C@H](n2cnc3c(N)ncnc32)[C@@H](O)[C@H]1O [Thr-AMS, Threonyl-sulfamoyl-adenosine]
Kd [2]: 4.5 nM

Nc1ncnc2c1ncn2[C@@H]1O[C@H](COP(=O)(O)OC(=O)[C@@H](N)Cc2ccc(O)cc2)[C@@H](O)[C@H]1O [Tyr-AMP, tyrosyl-AMP]
Kd ([1]; non-cognate aa-AMP): 1000 nM

CC(C)[C@H](N)C(=O)OP(=O)(O)OC[C@H]1O[C@@H](n2cnc3c(N)ncnc32)[C@H](O)[C@@H]1O [Val-AMP, valyl-adenylate]
fold weaker affinity than Ile-AMP [3]: This IleRS binds Val-AMP with a 150-fold weaker affinity than Ile-AMP.
